From paper PMC7366380, “Discovery of a Potent and Selective Covalent Inhibitor and Activity-Based Probe for the Deubiquitylating Enzyme UCHL1, with Antifibrotic Activity” (Journal of the American Chemical Society, 2020)

What was measured:
UCHL3 = target: T1, UCHL3 (Homo sapiens, UniProt P15374); test: Biochemical DUB selectivity profiling assay: UCHL3; conditions: Ub-Lys-TAMRA 50 nM, buffer A; read-out: Biochemical IC50 range, UCHL3
T1 sequence (P15374 1-230): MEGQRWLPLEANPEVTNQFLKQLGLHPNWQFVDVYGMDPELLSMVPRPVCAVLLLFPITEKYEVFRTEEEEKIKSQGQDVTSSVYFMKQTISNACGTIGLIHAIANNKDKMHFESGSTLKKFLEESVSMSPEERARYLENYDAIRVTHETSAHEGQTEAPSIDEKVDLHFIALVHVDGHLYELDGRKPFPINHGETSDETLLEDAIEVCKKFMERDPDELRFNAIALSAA
Experimental: (§1) DUB Assay Substrate Substrate
(§2) Buffer Concentration (nM) […]
(§3) Sepharose® 4B resin (GE Healthcare).
(§4) 10 kDa molecular weight cut-off (MWCO)).
(§5) Fractions containing protein
(§6) Protein concentration was […]
(§7) reaction volume of 21 μL. […]
(§8) compound (final concentration 5 nM).
(§9) IC50 values were determined
(§10) Biochemical DUB selectivity profiling assays […]
(§11) in 40 µL total reaction volume.

USP28 = target: T2, USP28 (Homo sapiens, UniProt Q96RU2); test: Biochemical DUB selectivity profiling assay: USP28; conditions: Ub-Lys-TAMRA 50 nM, buffer B; read-out: Biochemical IC50 range, USP28
T2 sequence (Q96RU2 1-1077): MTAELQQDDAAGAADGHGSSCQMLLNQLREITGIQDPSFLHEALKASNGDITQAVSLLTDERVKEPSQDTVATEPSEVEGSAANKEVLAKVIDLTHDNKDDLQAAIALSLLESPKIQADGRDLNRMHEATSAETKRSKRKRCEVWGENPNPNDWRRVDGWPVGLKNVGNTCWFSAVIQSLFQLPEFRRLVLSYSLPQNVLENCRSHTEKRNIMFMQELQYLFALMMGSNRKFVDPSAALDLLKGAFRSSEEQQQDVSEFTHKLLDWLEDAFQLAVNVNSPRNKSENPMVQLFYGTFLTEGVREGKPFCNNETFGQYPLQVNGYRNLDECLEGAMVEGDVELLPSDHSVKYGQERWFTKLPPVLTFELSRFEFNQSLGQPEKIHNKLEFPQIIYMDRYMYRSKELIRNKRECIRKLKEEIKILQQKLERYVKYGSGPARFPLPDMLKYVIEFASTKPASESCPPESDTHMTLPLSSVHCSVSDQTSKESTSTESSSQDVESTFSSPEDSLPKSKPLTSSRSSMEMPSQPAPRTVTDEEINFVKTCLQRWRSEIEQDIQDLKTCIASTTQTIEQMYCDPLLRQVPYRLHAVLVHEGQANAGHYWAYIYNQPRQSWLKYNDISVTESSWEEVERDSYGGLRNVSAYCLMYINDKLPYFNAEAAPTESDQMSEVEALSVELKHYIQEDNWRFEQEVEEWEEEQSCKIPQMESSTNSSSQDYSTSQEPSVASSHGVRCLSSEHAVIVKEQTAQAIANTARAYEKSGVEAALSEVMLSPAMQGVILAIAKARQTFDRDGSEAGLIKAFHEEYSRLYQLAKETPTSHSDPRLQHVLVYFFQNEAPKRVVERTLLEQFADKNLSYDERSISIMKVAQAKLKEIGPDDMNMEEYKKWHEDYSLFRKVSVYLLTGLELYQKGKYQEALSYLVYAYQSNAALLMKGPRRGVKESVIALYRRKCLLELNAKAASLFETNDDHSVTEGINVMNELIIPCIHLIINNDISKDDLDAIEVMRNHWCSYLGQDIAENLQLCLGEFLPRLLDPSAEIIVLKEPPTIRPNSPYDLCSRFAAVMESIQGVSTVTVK
Experimental: as §1, §2, §3, §4, §5, §6, §7, §8, §9, §10, §11

USP19 = target: T3, USP19 (Homo sapiens, UniProt O94966); test: Biochemical DUB selectivity profiling assay: USP19; conditions: Ub-Lys-TAMRA 50 nM, buffer A; read-out: Biochemical IC50 range, USP19
T3 sequence (O94966 1-1318): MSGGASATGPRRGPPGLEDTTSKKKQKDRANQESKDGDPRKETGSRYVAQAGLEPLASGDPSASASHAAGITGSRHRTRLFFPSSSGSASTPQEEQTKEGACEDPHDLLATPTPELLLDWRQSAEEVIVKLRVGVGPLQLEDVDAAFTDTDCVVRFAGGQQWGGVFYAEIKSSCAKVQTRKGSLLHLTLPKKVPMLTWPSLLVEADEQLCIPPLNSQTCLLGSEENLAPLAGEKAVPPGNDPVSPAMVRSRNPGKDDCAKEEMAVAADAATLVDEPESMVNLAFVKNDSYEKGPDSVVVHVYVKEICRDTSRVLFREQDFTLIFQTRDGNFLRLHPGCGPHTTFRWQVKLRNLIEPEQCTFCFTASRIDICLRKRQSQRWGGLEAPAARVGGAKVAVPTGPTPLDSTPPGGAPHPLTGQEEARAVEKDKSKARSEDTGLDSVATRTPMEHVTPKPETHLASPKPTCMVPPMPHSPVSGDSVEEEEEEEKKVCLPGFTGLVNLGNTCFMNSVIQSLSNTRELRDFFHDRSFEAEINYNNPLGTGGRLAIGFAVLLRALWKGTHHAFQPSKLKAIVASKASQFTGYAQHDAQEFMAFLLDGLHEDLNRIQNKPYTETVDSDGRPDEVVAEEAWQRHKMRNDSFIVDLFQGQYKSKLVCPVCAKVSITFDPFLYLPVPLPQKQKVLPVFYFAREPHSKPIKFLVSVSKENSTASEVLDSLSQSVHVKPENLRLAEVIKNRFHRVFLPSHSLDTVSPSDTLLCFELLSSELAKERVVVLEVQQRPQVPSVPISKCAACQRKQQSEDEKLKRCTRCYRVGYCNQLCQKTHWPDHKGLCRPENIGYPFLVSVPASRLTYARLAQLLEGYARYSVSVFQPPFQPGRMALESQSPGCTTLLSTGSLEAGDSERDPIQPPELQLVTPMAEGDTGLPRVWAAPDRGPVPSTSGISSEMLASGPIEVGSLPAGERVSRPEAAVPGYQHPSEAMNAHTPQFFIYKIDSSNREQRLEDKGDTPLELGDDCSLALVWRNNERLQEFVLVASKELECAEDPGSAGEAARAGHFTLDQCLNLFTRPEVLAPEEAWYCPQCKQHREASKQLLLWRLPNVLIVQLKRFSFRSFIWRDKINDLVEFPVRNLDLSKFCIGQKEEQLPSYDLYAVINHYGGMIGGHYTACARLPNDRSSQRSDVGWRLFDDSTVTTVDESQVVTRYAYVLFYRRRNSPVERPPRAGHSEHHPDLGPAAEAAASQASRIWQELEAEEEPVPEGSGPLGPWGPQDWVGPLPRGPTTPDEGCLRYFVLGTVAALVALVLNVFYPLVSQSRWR
Experimental: as §1, §2, §3, §4, §5, §6, §7, §8, §9, §10, §11

| SMILES | IC50 (UCHL3) [µM] | IC50 (USP28) [µM] | IC50 (USP19) [µM] |
| --- | --- | --- | --- |
| CC(=O)O/N=C1\C(=O)N(Cc2cc(Cl)ccc2Cl)c2ccc(Cl)cc21 [LDN-57444, reference compound] | > 10 | > 10 | > 10 |
| N#CN1CCC[C@@H]1C(=O)N1CCc2c(-c3c[nH]c4ncccc34)cccc21 [Compound 3] | > 10 | – | > 10 |
| N#CN1CCC[C@H]1C(=O)N1CCc2c(-c3c[nH]c4ncccc34)cccc21 [Compound 1] | 1 to 10 | > 10 | > 10 |
| C#Cc1cnc2[nH]cc(-c3cccc4c3CCN4C(=O)[C@@H]3CCCN3C#N)c2c1 [Compound 2] | 1 to 10 | > 10 | > 10 |
